# According to PMC6760275, “Comparison of Zebrafish Larvae and hiPSC Cardiomyocytes for Predicting Drug-Induced Cardiotoxicity in Humans” (Toxicological Sciences, 2019):
# Entries after “also recorded” stand apart in the source; their conditions may differ. Like-named read-outs stand apart in the source and are kept apart here.
# Experiments:
# [1] = test system: zebrafish larvae; experiment: ZeCardio cardiotoxicity screen in zebrafish larvae (heart and blood flow imaging)
# Description: Zebrafish (Danio rerio) were mated, staged, and raised by standard methods ([Westerfield, 2000]). The library screen was performed on double transgenic larvae for Tg[cmlc2: GFP] ([Huang et al., 2003]) and Tg[gata1: DsRed] ([Traver et al., 2003]). Tg[cmlc2: GFP] expresses green fluorescent protein (GFP) in cardiomyocytes and Tg[gata1: DsRed] expresses DsRed fluorescent protein in a subset of erythrocytes.
# Determination of NOEC was achieved through an Acute Toxicity test performed on AB wildtype larvae from 3 to 96 hpf, as previously described ([Cornet et al., 2017]) (see Supplementary Table 1 for NOEC data for each compound). For the cardiotoxic drug screening, double transgenic zebrafish larvae for Tg[cmlc2: GFP] and Tg[gata1: DsRed] were collected and raised in Embryo Medium (E3/60× Stock: 34.4 g NaCl, 1.52 g KCl, 5.8 g CaCl2·2H2O, 9.8 g MgSO4·7H2O, add 18 MOhm double distilled water up to 2000 ml; pH: 7.2) at 28.5°C in a 12 h light/12 h dark cycle. From 24 hpf onward, larvae were incubated with N-PhenylThioUrea (PTU) (Sigma-Aldrich, No. P7629) 0.2 mM to reduce pigmentation. Embryo medium was changed every day until 5 dpf, when double positive transgenic larvae were selected. […] Larvae were immersed in E3 with PTU 0.2 mM and Tricaine methanesulfonate (Sigma-Aldrich, No. E10521) at […] working concentration and distributed in 96-well plates in 100 µl per well. Then, 100 µl of compound solution was added at double NOEC concentration to reach the working concentration per compound: NOEC, DMSO 1%, and the final volume of 200 µl per larva per well. Negative control larvae were incubated in 200 µl 1% DMSO. Embryos were allowed to incubate in the compound solution for 4 h before. The developmental stage selected for analysis (5 dpf) was chosen because heart electrophysiological maturation and heart rhythm are stabilized from 96 hpf ([Tessadori et al., 2012]). One hundred and twenty hours post fertilization constitutes the latest stage to perform analysis after heart maturation and with conformation to ethical guidelines. Finally, the drug incubation time of 4 h was selected according to a previously established experimental set up ([Cornet et al., 2017]). Twelve embryos (1 embryo/well) were imaged for each compound, and the screening of the whole library was distributed over 15 experimental days. On each experimental day, 8 molecules were imaged: 7 drugs and the negative control 1% DMSO, to allow intraexperimental comparison.
# The hardware conforming the screening platform allows zebrafish larvae sampling from multi-well plates to allow their position and automatic orientation in a glass capillary under a microscope to perform high-throughput imaging acquisition. It integrates 2 commercially available systems. First, an integrated VAST system (Union Biometrica) ([Pardo-Martin et al., 2010]), which consists of 2 complementary devices: (1) LP sampler, an automated fluid system capable of aspirating small to medium sized particles from multi-well plates and delivering them intact to the VAST BioImager, and (2) VAST BioImager, an automated fluid system, which positions zebrafish larva in a glass capillary. Once introduced in the glass capillary, the larva is recognized by an integrated imaging system and rotated to the desired angle for external imaging. Second, a Leica DM6B upright widefield microscope with a motorized Z-stage and Leica DFC9000 GTC (4.2 megapixel) CMOS camera particularly suited for high-speed fluorescent imaging applications achieves the fluorescent time-lapse imaging. The 2 systems, VAST and Leica microscope, communicate to coordinate the tasks of sampling, positioning, and imaging. To control the microscope, the LASX software (Leica) was used. To focus fluorescent structures in z-direction, the Autofocus function in LASX was used.
# [2] = cited from earlier work; for cardiovascular clinical adverse effects: parent drug and/or metabolites, ref Zhang et al., 2012; for market withdrawal due to cardiovascular adverse effects: ref Onakpoya et al., 2016, Siramshetty et al.
# [3] = test system: Pluricyte hiPSC-CMs; experiment: hiPSC-CM calcium transient FLIPR assay; details: 10 μM; for detection as cardiotoxic in hiPSC-CMs (hiPSC-CM positive): 0.1% DMSO, any feature significant at any time point (5, 30, 90 min); for time point of detection in hiPSC-CMs: T1 5 min, T2 30 min, T3 90 min after compound addition
# Description: hiPSC-CMs beat spontaneously under culture conditions and the beating pattern can be addressed by Ca^2+ dyes reporting the intracellular Ca^2+ concentration that is then measured by the fluorometric imaging plate reader (FLIPR).
# This standard protocol was changed at 2 steps: hiPSC-CMs were not spun after thawing and the final concentration was 15 000 instead of 10 000 cells/well.
# Twenty microliters of Ca-6 dye solution was added to each well of the assay plate and the assay plate was incubated for 2 h at 37°C, 5% CO2 in the dark. […] After baseline measurement, compounds were added and the fluorescence signal was measured 5, 30, and 90 min after compound treatment. Fifteen microliters of compound dilution was transferred from a compound source plate (40 μM, 0.4% DMSO) to the assay plate (already containing 25 μl cells and 20 μl Ca-6 dye) using FLIPR. The final compound concentration was 10 μM and 0.1% DMSO. Between each measurement the plate was returned to the same incubator. Five extracted features were quantified: beating frequency/beats per minute (bpm), amplitude (ampl), area under the curve (auc), peak width (pkw), and peak width at 10% amplitude (ppkw) are measures informing about the depolarization and repolarization kinetics. […] Each compound was assessed as triplicate at 3 time points after incubation (T1: 5 min, T2: 30 min, T3: 90 min). A measurement was taken prior to compound addition (baseline, not shown). As there was little variability in the baseline measurement, it was not necessary to normalize against baseline. An average of the data of each feature for each time point was fed into the statistical model to determine significant effects.
# The LMMs include random effects accounting for the different sources of variation from the experimental design.
# [4] = test system: AB wildtype larvae; experiment: Acute Toxicity test for NOEC determination in AB wildtype zebrafish larvae, 3 to 96 hpf; format: in vivo, Danio rerio; details: higher concentration than the working concentration
# Description: Determination of NOEC was achieved through an Acute Toxicity test performed on AB wildtype larvae from 3 to 96 hpf, as previously described ([Cornet et al., 2017]) (see Supplementary Table 1 for NOEC data for each compound). […] Larvae were immersed in E3 with PTU 0.2 mM and Tricaine methanesulfonate (Sigma-Aldrich, No. E10521) at 168 mg/ml working concentration and distributed in 96-well plates in 100 µl per well. Then, 100 µl of compound solution was added at double NOEC concentration to reach the working concentration per compound: NOEC, DMSO 1%, and the final volume of 200 µl per larva per well. Negative control larvae were incubated in 200 µl 1% DMSO. Embryos were allowed to incubate in the compound solution for 4 h before. […] Twelve embryos (1 embryo/well) were imaged for each compound, and the screening of the whole library was distributed over 15 experimental days. On each experimental day, 8 molecules were imaged: 7 drugs and the negative control 1% DMSO, to allow intraexperimental comparison.
# [5] = test system: hERG; parameters: method as in Guo et al., 2007; Shi et al., 2015; details: human patients and rat cardiomyocytes; ref Guo et al., 2007; Shi et al., 2015; cited from earlier work
# [6] = 5 dpf larvae, 4 h incubation at NOEC, 1% DMSO, positive if any numerical feature significant or flag incidence above 30%
Compound,market withdrawal due to cardiovascular adverse effects ([2]; humans),detection as cardiotoxic in hiPSC-CMs (hiPSC-CM positive) [3],detection as cardiotoxic in zebrafish (zebrafish positive) ([1]; in vivo),also measured
COc1ccc(CCN2CCC(Nc3nc4ccccc4n3Cc3ccc(F)cc3)CC2)cc1 [Astemizole],withdrawn from the market due to cardiotoxicity concerns,TP molecules for both models,,Bigeminy ([1]; in vivo): Bigeminy; cardiovascular clinical adverse effects ([2]; humans): promote cardiovascular clinical adverse effects through both the parent drug and metabolites
CC(C)COCC(CN(Cc1ccccc1)c1ccccc1)N1CCCC1 (stereo not drawn) [Bepridil],withdrawn from the market,,detection,
CC(C)C[C@H]1C(=O)N2CCC[C@H]2[C@]2(O)O[C@](NC(=O)[C@@H]3C=C4c5cccc6[nH]c(Br)c(c56)C[C@H]4N(C)C3)(C(C)C)C(=O)N12 [Bromocriptine],withdrawn from the market,,,"detection in zebrafish due to features other than ventricular BPM ([1]; 5 dpf larvae, 4 h incubation at NOEC): detected for effects in features other than BPM; also recorded: enabled the detection; irregular beating of the heart (arrhythmia) ([1]; 5 dpf larvae, 4 h incubation at NOEC, representative example): arrhythmia; time point of detection in hiPSC-CMs [3]: detected only at T3; also recorded: only detected as cardiotoxic through the late assessment"
Cc1ccc(-c2cc(C(F)(F)F)nn2-c2ccc(S(N)(=O)=O)cc2)cc1 [Celecoxib],withdrawn from the market due to cardiotoxicity concerns,failed to detect; also recorded: did not even detect,could detect all,
COc1cc(N)c(Cl)cc1C(=O)NC1CCN(CCCOc2ccc(F)cc2)CC1OC (stereo not drawn) [Cisapride],withdrawn from the market due to cardiotoxicity concerns,,could detect all,Bigeminy ([1]; in vivo): Bigeminy
CN1CCN(C2=Nc3cc(Cl)ccc3Nc3ccccc32)CC1 [Clozapine],withdrawn from the market,,,
CCN[C@@H](C)Cc1cccc(C(F)(F)F)c1 [Dexfenfluramine],withdrawn from the market due to cardiotoxicity concerns,failed to detect,,"detection as cardiotoxic in zebrafish (zebrafish positive) [1, 6]: could detect all"
CN(CCOc1ccc(NS(C)(=O)=O)cc1)CCc1ccc(NS(C)(=O)=O)cc1 [Dofetilide],withdrawn from the market,,detection,
O=C(O[C@@H]1C[C@@H]2C[C@H]3C[C@H](C1)N2CC3=O)c1c[nH]c2ccccc12 [Dolasetron],,failed to detect,could detect all,
COc1cccc2c1C(=O)c1c(O)c3c(c(O)c1C2=O)C[C@@](O)(C(=O)CO)C[C@@H]3O[C@H]1C[C@H](N)[C@H](O)[C@H](C)O1 [Doxorubicin],,,,"cardiotoxicity in humans ([2]; ref Raj et al., 2014): promotes both acute and chronic cardiotoxicity in humans"
O=C(CCCN1CC=C(n2c(=O)[nH]c3ccccc32)CC1)c1ccc(F)cc1 [Droperidol],withdrawn from the market,,,
CCCCCCCN(CC)CCCC(O)c1ccc(NS(C)(=O)=O)cc1 (stereo not drawn) [Ibutilide],,,,"cardiotoxicity in humans ([2]; ref Stambler et al., 1997): can induce or worsen ventricular arrhythmias with fatal consequences"
CC(C)NCC(O)c1cc(O)cc(O)c1 (stereo not drawn) [Metaproterenol],withdrawn from the market due to cardiotoxicity concerns,,could detect all,
COCCc1ccc(OCC(O)CNC(C)C)cc1 (stereo not drawn) [Metoprolol],,,,irregular beating of the heart (arrhythmia) ([1]; in vivo): arrhythmia
CCCN1C[C@H](CSC)C[C@@H]2c3cccc4[nH]cc(c34)C[C@H]21 [Pergolide],withdrawn from the market,failed to detect; also recorded: neither model detected,,"clinical adverse effect leading to withdrawal ([2]; humans, no reference given): valvulopathies"
CC(Cc1ccccc1)NCCC(c1ccccc1)c1ccccc1 (stereo not drawn) [Prenylamine],withdrawn from the market,,,developmental defects in the acute toxicity test [4]: strong developmental defects
CC(C)(Sc1cc(C(C)(C)C)c(O)c(C(C)(C)C)c1)Sc1cc(C(C)(C)C)c(O)c(C(C)(C)C)c1 [Probucol],,failed to detect; also recorded: cannot detect,detection,effect on hERG activity [5]: interfere with hERG activity; arrhythmic phenotypes in hiPSC-CMs [3]: does not show arrhythmic phenotypes
CC(C)NCC(O)COc1cccc2ccccc12 (stereo not drawn) [Propranolol],,,,heart rate (ventricular BPM) phenotype ([1]; in vivo): bradycardia
CNCC(O)c1ccc(O)c(O)c1 (stereo not drawn) [Racepinephrine],withdrawn from the market,,detection,heart rate (ventricular BPM) phenotype ([1]; in vivo): tachycardia
CS(=O)(=O)c1ccc(C2=C(c3ccccc3)C(=O)OC2)cc1 [Rofecoxib],withdrawn from the market due to cardiotoxicity concerns,failed to detect; also recorded: did not even detect,,cardiovascular clinical adverse effects ([2]; humans): heart attack and stroke
CC(C)CC(N(C)C)C1(c2ccc(Cl)cc2)CCC1 (stereo not drawn) [Sibutramine],withdrawn from the market due to cardiotoxicity concerns,TP molecules for both models,,"detection as cardiotoxic in zebrafish (zebrafish positive) [1, 6]: could detect all; also recorded: TP molecules for both models; cardiovascular clinical adverse effects ([2]; humans): promote cardiovascular clinical adverse effects through both the parent drug and metabolites; time point of detection in hiPSC-CMs [3]: detected only at T3; also recorded: only detected as cardiotoxic through the late assessment"
